Results on 1 molecule are retold here after PMC6547681 (Nature Communications, 2019).

For series [1], the system named is KMS-12-PE cells expressing BCL-2 WT. In words: CellTiter-Glo cell viability, KMS-12-PE cells overexpressing BCL-2 WT. The conditions noted are these: read-out: S55746 LC50, KMS-12-PE overexpressing BCL-2 WT, 24 h, mean ± SD, n = 3.
Protocol: (§1) KMS-12-PE (sourced from DSMZ in 2013; Cat#ACC606) were cultured with HTRPMI with 10% fetal bovine serum. Early passages (P5-P7) after purchase were cryopreserved and thawed for the experiments. Cells beyond passage 15 were not used. Monthly tests for mycoplasma were consistently negative (MycoAlert mycoplasma detection kit; Lonza, GA, USA).
(§2) Cell viability 24 h after treatment was then determined using the CellTiter-Glo assay (Promega, Cat#G9241). […] Experiments were performed on three separate occasions; the data is shown as the means ± SD of those three independent experiments.
For series [2], the system named is KMS-12-PE cells expressing BCL-2 G101V. In words: CellTiter-Glo cell viability, KMS-12-PE cells overexpressing BCL-2 G101V. The conditions noted are these: read-out: S55746 LC50, KMS-12-PE overexpressing BCL-2 G101V, 24 h, mean ± SD, n = 3. On the technique in general: Cellular ATP, detected with luciferase, serves as a proxy for viable cell number.
Protocol: as §1, §2

Consider `O=C(c1cc(-c2cc3c(cc2C(=O)N2Cc4ccccc4C[C@H]2CN2CCOCC2)OCO3)n2c1CCCC2)N(c1ccccc1)c1ccc(O)cc1` [S55746], for which the figures for the CC50 in series [1] and in series [2] were 320 ± 150 nM and 2700 ± 430 nM, respectively.
